Measured values: patent publication US20230104936A1, “TRPML MODULATORS” (Casma Therapeutics, Inc., priority 2019, published 2023)

Test system: TFEB
Test: TFEB nuclear translocation assay, HeLa wt cells
Assay type: cell-based
Details: 2 hrs compound treatment, Table 1 does not say HeLa wt or TRPML1 KO
Method in brief: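 TFEB translocation into the nucleus of HeLa wt cells is scored by high-content immunofluorescence after 2 hrs of compound treatment at 37° C, reported as AC50.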

Structure (SMILES)	AC50 (Homo sapiens, HeLa, 2 h) [µM]	AC50 [µM]
CN(C)S(=O)(=O)c1ccc(S(=O)(=O)Nc2ccccc2N2C3CCC2CN(C(=O)C(C)(C)C)C3)cc1 [Compound A-354, N4-{2-[3-(2,2-dimethylpropanoyl)-3,8-diazabicyclo[3.2.1]octan-8-yl]phenyl}-N1,N1-dimethylbenzene-1,4-disulfonamide]	≥ 10	
CS(=O)(=O)c1ccc(S(=O)(=O)Nc2ccccc2N2CCC(c3c(F)cc(F)cc3F)CC2)cc1 [Compound A-132, 4-methanesulfonyl-N-{2-[4-(2,4,6-trifluorophenyl)piperidin-1-yl]phenyl}benzene-1-sulfonamide]	≤ 2	
COC1(C(=O)N2CCN(c3ccccc3NS(=O)(=O)c3ccc(S(=O)(=O)N(C)C)cc3)CC2)CCC1 [Compound A-458, N4-{2-[4-(1-methoxycyclobutanecarbonyl)piperazin-1-yl]phenyl}-N1,N1-dimethylbenzene-1,4-disulfonamide]	2.01 to 8	
CN1CCC2(CCN(c3ccccc3NS(=O)(=O)c3ccc(S(=O)(=O)N(C)C)cc3)CC2)C1 [Compound A-293, N1,N1-dimethyl-N4-(2-{2-methyl-2,8-diazaspiro[4.5]decan-8-yl}phenyl)benzene-1,4-disulfonamide]	≥ 10	
CN(C)S(=O)(=O)c1ccc(S(=O)(=O)N(C)c2cc(F)ccc2N2CCC3(CC2)COC(C)(C)C3)cc1 [Compound A-728, N1-(2-{3,3-dimethyl-2-oxa-8-azaspiro[4.5]decan-8-yl}-5-fluorophenyl)-N1,N4,N4-trimethylbenzene-1,4-disulfonamide]	2.01 to 8	
O=S(=O)(Nc1cc(Cl)ccc1N1CCCC2(CCCCO2)C1)c1ccc2c(c1)CCC2 (stereo not drawn) [Compound A-316, N-(5-chloro-2-{1-oxa-8-azaspiro[5.5]undecan-8-yl}phenyl)-2,3-dihydro-1H-indene-5-sulfonamide]	2.01 to 8	
C[C@@H]1CN(c2nn(S(=O)(=O)c3ccc(S(=O)(=O)N(C)C)cc3)c3ccccc23)C[C@H](C)C1(F)F [Compound A-968, 4-({3-[(3R,5S)-4,4-difluoro-3,5-dimethylpiperidin-1-yl]-1H-indazol-1-yl}sulfonyl)-N,N-dimethylbenzene-1-sulfonamide]	≤ 2	
O=S(=O)(Nc1ccccc1N1CCC(c2ccc(Cl)cc2F)CC1)c1ccccc1CO [Compound A-106, N-{2-[4-(4-chloro-2-fluorophenyl)piperidin-1-yl]phenyl}-2-(hydroxymethyl)benzene-1-sulfonamide]	≥ 10	
CN1c2ccccc2N(S(=O)(=O)c2ccc(S(=O)(=O)N(C)C)cc2)CC1c1ccc(Cl)cc1F (stereo not drawn) [Compound A-146, 4-{[3-(4-chloro-2-fluorophenyl)-4-methyl-1,2,3,4-tetrahydroquinoxalin-1-yl]sulfonyl}-N,N-dimethylbenzene-1-sulfonamide]	≤ 2	
CN(C)S(=O)(=O)c1ccc(S(=O)(=O)n2ccn(C3CCN(c4ccc(Cl)cc4F)CC3)c2=O)cc1 [Compound A-67, 4-((3-(1-(4-chloro-2-fluorophenyl)piperidin-4-yl)-2-oxo-2,3-dihydro-1H-imidazol-1-yl)sulfonyl)-N,N-dimethylbenzenesulfonamide]	≥ 10	
CC(=O)N(C)C1(c2ccc(Cl)cc2F)CCN(c2ccccc2NS(=O)(=O)c2ccc(S(=O)(=O)N(C)C)cc2)CC1 [Compound A-172, N-[4-(4-chloro-2-fluorophenyl)-1-{2-[4-(dimethylsulfamoyl)benzenesulfonamido]phenyl}piperidin-4-yl]-N-methylacetamide]	2.01 to 8	
CN1CCN(CCCS(=O)(=O)Nc2ccccc2N2CCN(C(=O)C(C)(C)C)CC2)CC1 [Compound A-417, N-{2-[4-(2,2-dimethylpropanoyl)piperazin-1-yl]phenyl}-3-(4-methylpiperazin-1-yl)propane-1-sulfonamide]	2.01 to 8	
CC1(C)CC2(CCN(c3ccccc3NS(=O)(=O)c3ccc4c(c3)OC(C)(C)O4)CC2)CO1 [Compound A-704, N-(2-{3,3-dimethyl-2-oxa-8-azaspiro[4.5]decan-8-yl}phenyl)-2,2-dimethyl-2H-1,3-benzodioxole-5-sulfonamide]	≤ 2	
CN(C)S(=O)(=O)c1ccc(S(=O)(=O)Nc2ccccc2N2CCC(C)(c3ccc(Cl)cc3F)CC2)cc1 [Compound A-204, N4-{2-[4-(4-chloro-2-fluorophenyl)-4-methylpiperidin-1-yl]phenyl}-N1,N1-dimethylbenzene-1,4-disulfonamide]	≤ 2	
C[C@@H]1CN(CC2CCN(c3ccccc3NS(=O)(=O)c3cnn(CC4CC4)c3)CC2)C[C@H](C)O1 [Compound A-772, 1-(cyclopropylmethyl)-N-[2-(4-[(2R,6S)-2,6-dimethylmorpholin-4-yl]methylpiperidin-1-yl)phenyl]-1H-pyrazole-4-sulfonamide]	8.01 to 9.99	
CCC(C)c1ccc(S(=O)(=O)Nc2ccccc2N2CCN(C(=O)C(C)(C)C)CC2)cc1 (stereo not drawn) [Compound A-513, 4-(butan-2-yl)-N-{2-[4-(2,2-dimethylpropanoyl)piperazin-1-yl]phenyl}benzene-1-sulfonamide]	2.01 to 8	
COCCN1CCN(c2ccccc2NS(=O)(=O)c2ccc(S(=O)(=O)N(C)C)cc2)CC1 [Compound A-553, N4-{2-[4-(2-methoxyethyl)piperazin-1-yl]phenyl}-N1,N1-dimethylbenzene-1,4-disulfonamide]	2.01 to 8	

Structure (SMILES)	AC50 (Homo sapiens, HeLa, 2 h) [µM]	AC50 [µM]
CCOC1(C)CCN(c2ccccc2NS(=O)(=O)c2ccc(S(=O)(=O)N(C)C)cc2)CC1 [Compound A-523, N4-[2-(4-ethoxy-4-methylpiperidin-1-yl)phenyl]-N1,N1-dimethylbenzene-1,4-disulfonamide]	≤ 2	
COCC1(C)CCN(c2ccccc2NS(=O)(=O)Cc2ccccc2C)CC1 [Compound A-592, N-{2-[4-(methoxymethyl)-4-methylpiperidin-1-yl]phenyl}-1-(2-methylphenyl)methanesulfonamide]	8.01 to 9.99	
CC1(C)CC2(CCN(c3ccccc3NS(=O)(=O)c3ccc4c(c3)OC3(CCC3)O4)CC2)CO1 [Compound A-723, N-(2-{3,3-dimethyl-2-oxa-8-azaspiro[4.5]decan-8-yl}phenyl)spiro[1,3-benzodioxole-2,1′-cyclobutane]-6-sulfonamide]	≤ 2	
CN(C)S(=O)(=O)c1ccc(S(=O)(=O)Nc2ccccc2N2CCC(c3cccc(C(=O)O)c3)CC2)cc1 [Compound A-266, 3-(1-{2-[4-(dimethylsulfamoyl)benzenesulfonamido]phenyl}piperidin-4-yl)benzoic acid]	≥ 10	
CN(C)S(=O)(=O)c1ccc(S(=O)(=O)Nc2ccccc2N2CCC(C(C)(C)O)CC2)cc1 [Compound A-725, N4-{2-[4-(2-hydroxypropan-2-yl)piperidin-1-yl]phenyl}-N1,N1-dimethylbenzene-1,4-disulfonamide]	8.01 to 9.99	
O=S(=O)(Nc1cc(Cl)ccc1N1CCC2(CCCO2)CC1)c1ccc2c(c1)CCC2 [Compound A-328, N-(5-chloro-2-{1-oxa-8-azaspiro[4.5]decan-8-yl}phenyl)-2,3-dihydro-1H-indene-5-sulfonamide]	≥ 10	
CS(=O)(=O)c1ccc(S(=O)(=O)Nc2ccc(F)cc2N2CCC(c3c(F)cccc3F)CC2)cc1 [Compound A-155, N-{2-[4-(2,6-difluorophenyl)piperidin-1-yl]-4-fluorophenyl}-4-methanesulfonylbenzene-1-sulfonamide]	2.01 to 8	
CN(C)S(=O)(=O)c1ccc(S(=O)(=O)Nc2cccc(F)c2N2CCC(CN3CC4CC(C3)O4)CC2)cc1 [Compound A-791, N4-{3-fluoro-2-[4-({6-oxa-3-azabicyclo[3.1.1]heptan-3-yl}methyl)piperidin-1-yl]phenyl}-N1,N1-dimethylbenzene-1,4-disulfonamide]	≥ 10	
CN(C)S(=O)(=O)c1ccc(S(=O)(=O)Nc2ccccc2N2CCC(C(F)(F)F)CC2)cc1 [Compound A-550, N1,N1-dimethyl-N4-{2-[4-(trifluoromethyl)piperidin-1-yl]phenyl}benzene-1,4-disulfonamide]	≤ 2	
C[C@@H]1CN(CC2CCN(c3c(Br)cccc3NS(=O)(=O)c3ccc(S(=O)(=O)N(C)C)cc3)CC2)C[C@H](C)O1 [Compound A-864, N4-[3-bromo-2-(4-{[(2R,6S)-2,6-dimethylmorpholin-4-yl]methyl}piperidin-1-yl)phenyl]-N1,N1-dimethylbenzene-1,4-disulfonamide]	≤ 2	
Cc1ccc(S(=O)(=O)C(C)c2cccc(F)c2N2CCC(CN3C4CCC3COC4)CC2)cc1 (single isomer, unassigned) [Compound A-965, 8-((1-(2-fluoro-6-(1-tosylethyl)phenyl)piperidin-4-yl)methyl)-3-oxa-8-azabicyclo[3.2.1]octane]		≥ 10
Cc1ccc(S(=O)(=O)Nc2cccc(F)c2N2CCC(CN3C4COCC3C4)CC2)cc1 [Compound A-889, N-{3-fluoro-2-[4-({3-oxa-6-azabicyclo[3.1.1]heptan-6-yl}methyl)piperidin-1-yl]phenyl}-4-methylbenzene-1-sulfonamide]	2.01 to 8	
Cc1ccc(S(=O)(=O)Nc2ccccc2N2CCC3(CC2)COC(C)(C)C3)cc1 [Compound A-662, N-(2-{3,3-dimethyl-2-oxa-8-azaspiro[4.5]decan-8-yl}phenyl)-4-methylbenzene-1-sulfonamide]	≤ 2	
CN(C)S(=O)(=O)c1ccc(S(=O)(=O)Nc2ccccc2N2CCN(CCF)CC2)cc1 [Compound A-559, N4-{2-[4-(2-fluoroethyl)piperazin-1-yl]phenyl}-N1,N1-dimethylbenzene-1,4-disulfonamide]	2.01 to 8	
CN(C)S(=O)(=O)c1ccc(S(=O)(=O)Nc2ccc3ccnn3c2N2CCCCC2)cc1 [Compound A-793, N1,N1-dimethyl-N4-[7-(piperidin-1-yl)pyrazolo[1,5-a]pyridin-6-yl]benzene-1,4-disulfonamide]	2.01 to 8	
CN(C)S(=N)(=O)c1ccc(S(=O)(=O)Nc2cccc(F)c2N2CCC(CN3CC4CCC(C3)O4)CC2)cc1 (stereo not drawn) [Compound A-853, N-(2-(4-((8-oxa-3-azabicyclo[3.2.1]octan-3-yl)methyl)piperidin-1-yl)-3-fluorophenyl)-4-(N,N-dimethylsulfamidimidoyl)benzenesulfonamide]		≤ 2
